Data from PMC9503009, “Determining Ligand and Ion-Induced Conformational Changes in Serotonin Transporter with Its Fluorescent Substrates” (International Journal of Molecular Sciences, 2022).
Read-outs that look alike come from different tables or passages of the source.

Tests used:
Type in all cases: cell-based
[1] = target: T1, SERT C109A (Rattus norvegicus, UniProt P31652, C109A); experiment: MTSET inhibition of APP+ uptake in live cells (extracellular pathway cysteine accessibility)
T1 construct: expressed in transfected cells
Experimental: Figure 3 Reactivity of the extracellular cysteine mutants with MTSET. (A) MTSET concentration-dependent inhibition of APP^+ uptake. The cells stably expressing C109A, Y107C/C109C, or S404C/C109A were incubated for 15 min with indicated concentrations of MTSET. The MTSET concentration giving half-maximal inhibition of APP^+ accumulation in the cells was used to calculate inactivation rate constants as plotted in (B). In this experiment, half-maximal MTSET concentrations were […] for C109A, 0.011 ± 0.006 mM for Y107C/C109A, and 0.0025 ± 0.0008 mM for S404C/C109A, respectively. Representative images of APP^+ uptake by C109A, Y107C/C109A, or S404C/C109A under various MTSET concentrations were shown in Supplemental Figure S1. The experiment was repeated twice with similar results. (B) Rate constants of MTSET inhibition of APP^+ uptake. At the half-maximal concentration, the half-time is the assay time (15 min) and the first-order rate constant is 7.7 × 10^−4 s^−1. […]
Accessibility of the cysteine residues in the extracellular pathway was measured by reactivity of Y107C/C109A and S404C/C109A mutants with MTSET. […] The extent of APP^+ accumulated in the cells was determined by confocal imaging analysis in the live cells. […] The MTSET concentration causing half-maximal inactivation was determined and used to calculate the rate constant for cysteine modification, as described previously.

[2] = target: T2, SERT S277C/X5C (Rattus norvegicus, UniProt P31652, C109A/C15A/C21A/C357I/C622A/S277C); experiment: MTS reagent inhibition of ASP+ binding in digitonin-permeabilized cells (cytoplasmic pathway cysteine accessibility); conditions: S277C/X5C, 25 μg/mL digitonin
T2 construct: expressed in transfected cells
Experimental: After 3 × rapid washing with KRH buffer, APP^+ or ASP^+ accumulation was measured as described under “Materials and Methods”. […] These representative images were parallelly acquired from one experiment. […] After 3 × washing, ASP^+ binding to the cell membrane was measured as described under “Materials and Methods”. […] (D) The effects of MTSET on ASP^+ binding of S277C/X5C and X5C. […] After 3 × rapid washing, ASP^+ binding was measured as described under “Materials and Methods”.
After washing to remove excess MTSEA and ligands, ASP^+ binding was measured as described under “Materials and Methods”. […] The IC50 values of MTSEA inhibition of ASP^+ binding were converted to rate constants.
The cells stably expressing Y107C/C109A were treated at 22 °C for 15 min with indicated concentrations of MTSET in the absence or presence of 10 μM vilazodone. After washing to remove excess MTSET and vilazodone, APP^+ uptake was measured as described under “Materials and Methods”. […] The IC50 values of MTSET inhibition were used to calculate rate constants as described under “Materials and Method”. Error bars represent SEM from three experiments. […] After washing to remove excess MTSEA and vilazodone, ASP^+ binding was measured as described under “Materials and Methods”. […] The IC50 values of MTSEA inhibition of ASP^+ binding were converted to rate constants. […]
For cytoplasmic pathway accessibility, measurements were performed with the cells stably expressing S277C/X5C. […] The cells, then, were washed free of unreacted MTSEA and ligands, ASP^+ binding was measured by adding 500 μL KRH buffer containing 10 μM ASP^+ and incubating at 22 °C for 5 min. Excess ASP^+ was removed by 3 × rapid washing with KRH buffer and ASP^+ fluorescence retained in the cell membrane was measured by confocal imaging analysis in the permeabilized cells. […] The MTSEA IC50 value was determined and used to calculate the rate constant for S277C/X5C modification.

[3] = target: T3, SERT S404C/C109A (Rattus norvegicus, UniProt P31652, C109A/S404C); experiment: MTSET inhibition of APP+ uptake in live cells (extracellular pathway cysteine accessibility); conditions: for IC50: S404C/C109A
T3 construct: expressed in transfected cells
Experimental: (§1) Figure 3 Reactivity of the extracellular cysteine mutants with MTSET. (A) MTSET concentration-dependent inhibition of APP^+ uptake. The cells stably expressing C109A, Y107C/C109C, or S404C/C109A were incubated for 15 min with indicated concentrations of MTSET. The MTSET concentration giving half-maximal inhibition of APP^+ accumulation in the cells was used to calculate inactivation rate constants as plotted in (B). […] Representative images of APP^+ uptake by C109A, Y107C/C109A, or S404C/C109A under various MTSET concentrations were shown in Supplemental Figure S1. […] (B) Rate constants of MTSET inhibition of APP^+ uptake. At the half-maximal concentration, the half-time is the assay time (15 min) and the first-order rate constant is 7.7 × 10^−4 s^−1. This rate constant was divided by the half maximal MTSET concentration from (A) to obtain the pseudo first-order modification rate constant. Error bars represent SEM of three experiments.
(§2) The cells stably expressing Y107C/C109A or S404C/C109A were preincubated with indicated ligands and MTSET at a concentration of 0.01 mM for Y107C/C109A or 0.002 mM for S404C/C109A at 22 °C for 15 min, respectively. At the end of this incubation, cells were washed free of MTSET and ligands into KRH buffer containing NaCl and APP^+. APP^+ uptake was measured as described under “Materials and Methods”. Error bars represent SEM from three experiments. Asterisks and hashtags indicate statistically significant changes (p < 0.05) in the accumulated APP^+ fluorescence compared with the corresponding control (MTSET alone).
Accessibility of the cysteine residues in the extracellular pathway was measured by reactivity of Y107C/C109A and S404C/C109A mutants with MTSET. The cells stably expressing Y107C/C109A or S404C/C109A were incubated with MTSET over a range of concentrations in HEPES buffer containing indicated ligands or ions at 22 °C for 15 min. After excess MTSET and ligands were removed by rapid 3 × washing with the same buffer, the cells were then incubated with APP^+ at a final concentration of 2 μM in KRH buffer at 22 °C for another 5 min. The extent of APP^+ accumulated in the cells was determined by confocal imaging analysis in the live cells. To measure the effects of antidepressants, substrate 5-HT, or other ligands such as 5-HTP or tryptophan, where added, was present at 10 μM. To measure the effects of ions, 150 mM […] (NMDG) gluconate, and NMDG chloride, sodium isethionate, or NaCl was used as indicated. These measurements of reactivity depend on the ability of MTSET to inactivate APP^+ transport activity by an allosteric mechanism. The MTSET concentration causing half-maximal inactivation was determined and used to calculate the rate constant for cysteine modification, as described previously.

[4] = target: T4, SERT Y107C/C109A (Rattus norvegicus, UniProt P31652, C109A/Y107C); experiment: as above; conditions: Y107C/C109A
T4 construct: expressed in transfected cells
Experimental: as §1
(A) MTSET concentration-dependent inhibition of APP^+ uptake. […] After washing to remove excess MTSET and ligands, APP^+ uptake was measured as described under “Materials and Methods”. […] (B) Rate constants of MTSET inhibition of APP^+ uptake. The IC50 values of MTSET inhibition were used to calculate rate constants as described under “Materials and Methods”. Error bars represent SEM from three experiments.
as §2
The cells stably expressing Y107C/C109A were treated at 22 °C for 15 min with indicated concentrations of MTSET in the absence or presence of 10 μM vilazodone. After washing to remove excess MTSET and vilazodone, APP^+ uptake was measured as described under “Materials and Methods”. […] The IC50 values of MTSET inhibition were used to calculate rate constants as described under “Materials and Method”. Error bars represent SEM from three experiments. […] After washing to remove excess MTSEA and vilazodone, ASP^+ binding was measured as described under “Materials and Methods”. […] The IC50 values of MTSEA inhibition of ASP^+ binding were converted to rate constants.

[5] = 15 min incubation with MTSET, read-out: half-maximal MTSET concentration for inhibition of APP+ accumulation
[6] = constant concentration used in simplified assay, read-out: MTSET IC50 value (APP+ uptake inhibition)

IC50 ([1]; C109A, 15 min incubation with MTSET, read-out: half-maximal MTSET concentration for inhibition of APP+ accumulation): > 1000 µM
effect on transport activity (APP+ uptake) ([1]; background construct C109A, MTSET 0.1 μM to 1 mM): little effect
accessibility of Cys277 to MTSET [2]: not accessible
IC50 [3, 5]: 2.5 ± 0.8 µM
IC50 [3, 6]: 2 µM
reactivity with MTSET of S404C/C109A relative to Y107C/C109A (faster by) ([3]; pseudo first-order rate constants): 4-5 fold
IC50 [4, 5]: 11 ± 6 µM
IC50 [4, 6]: 10 µM
SMILES: C[N+](C)(C)CCSS(C)(=O)=O.[Br-] [MTSET, 2-(Trimethylammonium) ethyl methanethiosulfonate bromide]
